Measurements reported in US20220002279A1, “NOVEL IMIDAZOLE DERIVATIVE” (priority 2018, published 2022).
In brackets after ≈: the same amount, converted by molar mass. Like-named read-outs stand apart in the source and are kept apart here.

Legend:
[1] = biological target: T1, Escherichia coli LpxC enzyme (Escherichia coli, UniProt P0A725); test: Inhibitory activity on Escherichia coli LpxC enzyme (LCMS method); type: biochemical
T1 construct: made in house; host or cells: Escherichia coli
T1 sequence (P0A725 1-305): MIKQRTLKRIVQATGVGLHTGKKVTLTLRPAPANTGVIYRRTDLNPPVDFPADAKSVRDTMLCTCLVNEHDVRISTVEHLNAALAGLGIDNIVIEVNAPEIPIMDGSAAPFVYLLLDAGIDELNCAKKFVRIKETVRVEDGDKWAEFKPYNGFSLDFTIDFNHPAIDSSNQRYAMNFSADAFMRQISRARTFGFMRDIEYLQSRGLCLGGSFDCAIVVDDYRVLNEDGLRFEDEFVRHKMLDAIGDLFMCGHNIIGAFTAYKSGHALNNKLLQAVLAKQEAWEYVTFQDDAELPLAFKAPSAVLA
Description: Test Example 3 Evaluation of the Inhibitory Activity on Escherichia coli LpxC Enzyme (LCMS Method)
To assay the activity of Escherichia coli LpxC enzyme, LpxC was reacted with its substrate, UDP-3-O-(R-3-hydroxymyristoyl)-N-acetylglucosamine, and the amount of the reaction product was quantified by liquid chromatography tandem mass spectrometry.
Specifically, to 3.1 nmol/L Escherichia coli LpxC enzyme (as acquired by preparing chromosomal DNA from Escherichia coli, obtaining the Escherichia coli LpxC genes by PCR (polymerase chain reaction) using LpxC specific primer, and incorporating the genes into a vector, followed by expression using Escherichia coli), 20 μmol/L UDP-3-O-(R-3-hydroxymyristoyl)-N-acetylglucosamine (Alberta) was added, and the mixture was incubated at room temperature for 120 minutes. This reaction was performed in a 40 mmol/L-2-morpholinoethanesulfonic acid buffer solution (pH 6.5) containing 0.02% Brij 35, 25 nmol/L-zinc chloride, and 80 μmol/L-dithiothreitol. The reaction was terminated by the addition of acetonitrile containing 25 μmol/L-UDP-N-acetylglucosamine as an internal standard to the reaction mixture. Centrifugation was performed and the amount of the substrate and the reaction product in the supernatant was detected by liquid chromatography tandem mass spectrometry. An inhibition curve was obtained by performing the aforementioned reaction in the presence of various concentrations of test compounds. From this inhibition curve, the concentration of test compound at which the amount of the reaction product was suppressed by 50% (IC50 value) was determined, which was used as an index for the inhibitory activity on Escherichia coli LpxC enzyme.

[2] = system: Pseudomonas aeruginosa strain ATCC27853; test: Antimicrobial activity, MIC by broth microdilution; type: cell-based; details: ATCC27853, 18 h, cation-adjusted Mueller-Hinton broth, about 5×10^5 CFU/mL, 35° C., about 18 hours, read-out: MIC Pseudomonas aeruginosa ATCC27853
In short: (§1)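 CLSI-based broth microdilution in cation-adjusted Mueller-Hinton broth, inoculum about 5×10^5 CFU/mL from overnight heart infusion agar culture. Incubation 35° C. about 18 h; MIC is the lowest concentration with no visible growth.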

[3] = system: Klebsiella pneumoniae strain ATCC13883; test: Antimicrobial activity, MIC by broth microdilution; type: cell-based; details: ATCC13883, cation-adjusted Mueller-Hinton broth, about 5×10^5 CFU/mL, 35° C., about 18 hours, read-out: MIC Klebsiella pneumoniae ATCC13883
In short: as §1

[4] = biological target: T2, Pseudomonas aeruginosa LpxC enzyme (Pseudomonas aeruginosa, UniProt P47205); test: Inhibitory activity on Pseudomonas aeruginosa LpxC enzyme (fluorescamine method); type: biochemical; details: fluorescamine detection; 3.6 nmol/L enzyme, 20 μmol/L substrate, pH 8.0, 60 min
T2 construct: made in house; host or cells: Escherichia coli
T2 sequence (P47205 1-303): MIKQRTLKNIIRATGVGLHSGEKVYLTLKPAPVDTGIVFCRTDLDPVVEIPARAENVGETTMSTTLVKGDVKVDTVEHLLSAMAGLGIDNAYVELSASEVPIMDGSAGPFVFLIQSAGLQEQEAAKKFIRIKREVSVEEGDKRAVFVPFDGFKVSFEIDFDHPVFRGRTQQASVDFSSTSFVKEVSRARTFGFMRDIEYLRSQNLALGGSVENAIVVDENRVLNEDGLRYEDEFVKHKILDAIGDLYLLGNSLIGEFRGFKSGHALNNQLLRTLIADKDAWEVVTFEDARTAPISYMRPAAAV
Description: Test Example 1 Evaluation of the Inhibitory Activity on Pseudomonas aeruginosa LpxC Enzyme (Fluoresamine Method)
To assay the activity of Pseudomonas aeruginosa LpxC enzyme, LpxC was reacted with its substrate, UDP-3-O-(R-3-hydroxydecanoyl)-N-acetylglucosamine, and the amount of the reaction product was quantified by the amino groups present in the product.
Specifically, to 3.6 nmol/L Pseudomonas aeruginosa LpxC enzyme (as acquired by preparing chromosomal DNA from Pseudomonas aeruginosa, obtaining the Pseudomonas aeruginosa LpxC genes by PCR (polymerase chain reaction) using LpxC specific primer, and incorporating the genes into a vector, followed by expression using Escherichia coli), 20 μmol/L UDP-3-O-(R-3-hydroxydecanoyl)-N-acetylglucosamine (Carbosynth) was added, and the mixture was incubated at room temperature for 60 minutes. This reaction was performed in a 40 mmol/L-HEPES buffer solution (pH 8.0) containing 0.02% Brij 35 and 25 nmol/L-zinc chloride. The reaction was terminated by the addition of 1.0 mg/mL-fluorescamine dissolved in a solvent obtained by mixing an equal amount of acetonitrile and dimethylformamide with the reaction mixture, and then, a 0.2 mol/L-sodium phosphate buffer solution (pH 8.0) was added thereto, and the amount of the reaction product was detected at an excitation wavelength/fluorescence wavelength=390 nm/495 nm. An inhibition curve was obtained by performing the aforementioned reaction in the presence of various concentrations of test compounds. From this inhibition curve, the concentration of test compound at which the amount of the reaction product was suppressed by 50% (IC50 value) was determined, which was used as an index for the inhibitory activity on Pseudomonas aeruginosa LpxC enzyme.

[5] = system: Escherichia coli strain ATCC25922; test: Antimicrobial activity, MIC by broth microdilution; type: cell-based; details: ATCC25922, 18 h, cation-adjusted Mueller-Hinton broth, about 5×10^5 CFU/mL, 35° C., about 18 hours, read-out: MIC Escherichia coli ATCC25922
In short: as §1

[6] = LC-MS/MS detection, 3.1 nmol/L enzyme, 20 μmol/L substrate, pH 6.5, 120 min, read-out: IC50 (inhibitory activity on Escherichia coli LpxC enzyme, LCMS method)

| Compound | IC50 [1, 6] | MIC [2] | MIC [3] | IC50 [4] | IC50 [1] | MIC [5] |
| --- | --- | --- | --- | --- | --- | --- |
| C[C@H](O)c1nccn1Cc1cc(-c2ccc(C#CC3CC3CN)cc2)on1 (stereo in doubt) [Compound 8, (1S)-1-(1-{[5-(4-{[trans-2-(aminomethyl)cyclopropyl]ethynyl}phenyl)-1,2-oxazol-3-yl]methyl}-1H-imidazol-2-yl)ethan-1-ol] | 0.0678 µM | 16 µg/mL (≈ 44.1 µM) | 64 µg/mL (≈ 177 µM) | 0.0305 µM | – | – |
| C[C@H](O)c1nccn1[C@H](CN)c1cc(-c2ccc(C#CCCCO)cc2)on1 [Compound 18, 5-(4-{3-[(1R)-2-Amino-1-{2-[(1S)-1-hydroxyethyl]-1H-imidazol-1-yl}ethyl]-1,2-oxazol-5-yl}phenyl)pent-4-yn-1-ol] | – | 16 µg/mL (≈ 42.1 µM) | 8 µg/mL (≈ 21 µM) | 0.00604 µM | 0.0697 µM | – |
| C[C@H](O)c1nccn1[C@H](CN)c1cc(-c2ccc(C#CC34CC(N)(C3)C4)cc2)on1 [Compound 20, (1S)-1-{1-[(1R)-2-amino-1-(5-{4-[(3-aminobicyclo[1.1.1]pentan-1-yl)ethynyl]phenyl}-1,2-oxazol-3-yl)ethyl]-1H-imidazol-2-yl}ethan-1-ol] | 0.279 µM | 4 µg/mL (≈ 9.91 µM) | 2 µg/mL (≈ 4.96 µM) | – | – | 0.5 µg/mL (≈ 1.24 µM) |
| C[C@H](O)c1nccn1[C@H](CN)c1cc(-c2ccc(C#CC3(N)CC3)cc2)on1 [Compound 21, (1S)-1-{1-[(1R)-2-amino-1-(5-(4-[(1-aminocyclopropyl)ethynyl]phenyl}-1,2-oxazol-3-yl)ethyl]-1H-imidazol-2-yl}ethan-1-ol] | 0.282 µM | 32 µg/mL (≈ 84.8 µM) | 8 µg/mL (≈ 21.2 µM) | – | – | 2 µg/mL (≈ 5.3 µM) |
| C[C@H](O)c1nccn1[C@H](CN)c1cc(-c2ccc(C#C[C@@H]3[C@H]4CN(CCO)C[C@@H]34)cc2)on1 [Compound 22, (1S)-1-(1-{(1R)-2-Amino-1-[5-(4-{[(1R,5S,6s)-3-(2-hydroxyethyl)-3-azabicyclo[3.1.0]hexan-6-yl]ethynyl}phenyl)-1,2-oxazol-3-yl]ethyl}-1H-imidazol-2-yl)ethan-1-ol] | 0.655 µM | 2 µg/mL (≈ 4.47 µM) | 4 µg/mL (≈ 8.94 µM) | – | – | 2 µg/mL (≈ 4.47 µM) |
| C[C@H](O)c1nccn1Cc1cc(-c2ccc(C#CC3CC(N)(C#N)C3)cc2)on1 (stereo partly drawn) [Compound 24, 1-Amino-3-({4-[3-({2-[(1S)-1-hydroxyethyl]-1H-imidazol-1-yl}methyl)-1,2-oxazol-5-yl]phenyl}ethynyl)cyclobutane-1-carbonitrile] | < 0.037 µM | 128 µg/mL (≈ 330 µM) | 4 µg/mL (≈ 10.3 µM) | – | – | 2 µg/mL (≈ 5.16 µM) |
| C[C@H](O)c1nccn1Cc1cc(-c2ccc(C#CC3CC(N)(C(N)=O)C3)cc2)on1 (stereo partly drawn) [Compound 25, 1-Amino-3-({4-[3-({2-[(1S)-1-hydroxyethyl]-1H-imidazol-1-yl}methyl)-1,2-oxazol-5-yl]phenyl}ethynyl)cyclobutane-1-carboxamide] | 0.0522 µM | 32 µg/mL (≈ 78.9 µM) | 8 µg/mL (≈ 19.7 µM) | – | – | 2 µg/mL (≈ 4.93 µM) |
| C[C@H](O)c1nccn1Cc1cc(-c2ccc(C#CC3(N)CC3)cc2)no1 [Compound 27, (1S)-1-{1-[(3-(4-[(1-aminocyclopropyl)ethynyl]phenyl}-1,2-oxazol-5-yl)methyl]-1H-imidazol-2-yl}ethan-1-ol] | 0.193 µM | > 128 µg/mL | 4 µg/mL (≈ 11.5 µM) | – | – | 1 µg/mL (≈ 2.87 µM) |
| C[C@H](O)c1nccn1Cc1cc(-c2ccc(C#CC34CC(N)(C3)C4)cc2)no1 [Compound 28, (1S)-1-{1-[(3-(4-[(3-aminobicyclo[1.1.1]pentane-1-yl)ethynyl]phenyl}-1,2-oxazol-5-yl)methyl]-1H-imidazol-2-yl}ethan-1-ol] | 0.0646 µM | 64 µg/mL (≈ 171 µM) | 2 µg/mL (≈ 5.34 µM) | – | – | 0.5 µg/mL (≈ 1.34 µM) |
| C[C@H](O)c1nccn1Cc1cc(-c2ccc(C#CC3(N)CCOCC3)cc2)on1 [Compound 29, (1S)-1-{1-[(5-{4-[(4-aminooxan-4-yl)ethynyl]phenyl}-1,2-oxazol-3-yl)methyl]-1H-imidazol-2-yl}ethan-1-ol] | > 3 µM | > 128 µg/mL | 128 µg/mL (≈ 326 µM) | – | – | 64 µg/mL (≈ 163 µM) |
| C[C@H](O)c1nccn1Cc1cc(-c2ccc(C#CC(C)(C)N)cc2)on1 [Compound 33] | > 3 µM | > 128 µg/mL | 64 µg/mL (≈ 183 µM) | – | – | 32 µg/mL (≈ 91.3 µM) |
| C[C@H](O)c1nccn1Cc1cc(-c2ccc(C#CC3(N)COC3)cc2)on1 [Compound 40, (1S)-1-{1-[(5-(4-[(3-aminooxetan-3-yl)ethynyl]phenyl}-1,2-oxazol-3-yl)methyl]-1H-imidazol-2-yl}ethan-1-ol] | 0.14 µM | > 128 µg/mL | 32 µg/mL (≈ 87.8 µM) | – | – | 16 µg/mL (≈ 43.9 µM) |
| C[C@H](O)c1nccn1Cc1cc(-c2ccc(C#C[C@@H]3[C@H]4CN(C(=O)CCN)C[C@@H]34)cc2)on1 [Compound 61, 3-Amino-1-[(1R,5S,6s)-6-({4-[3-({2-[(1S)-1-hydroxyethyl]-1H-imidazol-1-yl}methyl)-1,2-oxazol-5-yl]phenyl}ethynyl)-3-azabicyclo[3.1.0]hexan-3-yl]propan-1-one] | < 0.037 µM | 4 µg/mL (≈ 8.98 µM) | 16 µg/mL (≈ 35.9 µM) | – | – | 8 µg/mL (≈ 18 µM) |
| C[C@H](O)c1nccn1Cc1cc(-c2ccc(C#C[C@@H]3[C@H]4CN(C(=O)CC(C)(C)N)C[C@@H]34)cc2)on1 [Compound 62, 3-amino-1-[(1R,5S,6s)-6-((4-[3-((2-[(1S)-1-hydroxyethyl]-1H-imidazol-1-yl}methyl)-1,2-oxazol-5-yl]phenyl)ethynyl)-3-azabicyclo[3.1.0]hexan-3-yl]-3-methylbutan-1-one] | < 0.037 µM | 8 µg/mL (≈ 16.9 µM) | 32 µg/mL (≈ 67.6 µM) | – | – | 8 µg/mL (≈ 16.9 µM) |
| Cc1cnc([C@H](C)O)n1Cc1cc(-c2ccc(C#CC3(N)CC3)cc2)on1 [Compound 64, (1S)-1-{1-[(5-{4-[(1-Aminocyclopropyl)ethynyl]phenyl}-1,2-oxazol-3-yl)methyl]-5-methyl-1H-imidazol-2-yl}ethan-1-ol] | – | > 128 µg/mL | 4 µg/mL (≈ 11 µM) | – | 0.176 µM | 2 µg/mL (≈ 5.52 µM) |
| C[C@H](O)c1nccn1[C@H](CN)c1cc(-c2ccc(C#C[C@H]3C[C@H](O)C3)cc2)on1 [Compound 70, trans-3-[(4-{3-[(1R)-2-Amino-1-{2-[(1S)-1-hydroxyethyl]-1H-imidazol-1-yl}ethyl]-1,2-oxazol-5-yl}phenyl)ethynyl]cyclobutan-1-ol] | < 0.037 µM | 4 µg/mL (≈ 10.2 µM) | 1 µg/mL (≈ 2.55 µM) | – | – | 0.25 µg/mL (≈ 0.637 µM) |
